# Measurements as given in US12459918B2, “Isoquinolinone derivatives serving as rock protein kinase inhibitors and use thereof” (GUANGZHOU OCUSUN OPHTHALMIC BIOTECHNOLOGY CO., LTD., priority 2019, dated 2025).
# Tested on: New Zealand rabbits with normal intraocular pressure
# Assay: Reduction of intraocular pressure by repeated eye-drop administration for 14 days, experiment operation 1
# Format: in vivo
# Details: for Change of intraocular pressure: negative control minus group
# Text: Experimental example 4. Experiment on reduction of intraocular pressure and ocular toxicity of New Zealand rabbits with normal intraocular pressure by repeated eye-drop administration for 14 days
# The intraocular pressure reduction action and the potential ocular toxicity of compound 63 were explored by 14 days of repeated eye-drop administration in rabbits with normal intraocular pressure.
# Male New Zealand rabbits, aged 97-127 days, weighted 2.6-3.5 kg, purchased from PizhouDongfang Breeding Co. Ltd.
# The male New Zealand rabbits were randomly divided into 7 groups, with 6 rabbits per group. Animals were randomly divided according to body weight Animals in 1-7 groups were eye-dropped with solvent/control sample/test sample in both eyes, the volume of the administration was all 50 μL/eye, once per day for 14 consecutive days, and the day of the administration was recorded as Day 1. On Day 1, intraocular pressure of the animals was measured before the administration and in 1, 2, 4, 6, 8 and 10 hours after the administration, respectively; on Days 2-14, intraocular pressure of the animals was measured in 1 hour after daily administration for the group administered with K-115, and intraocular pressure of the animal was measured in 4 hours after daily administration for the other groups.
# [1] = 0.5 mg/mL once per day, Day 2, 4 hours after daily administration
# [2] = 0.5 mg/mL once per day, Day 3, 4 hours after daily administration
# [3] = 0.5 mg/mL once per day, Day 4, 4 hours after daily administration
# [4] = 0.5 mg/mL once per day, Day 5, 4 hours after daily administration
# [5] = 0.5 mg/mL once per day, Day 6, 4 hours after daily administration
# [6] = 0.5 mg/mL once per day, Day 7, 4 hours after daily administration
# [7] = 1.0 mg/mL once per day, Day 2, 4 hours after daily administration
# [8] = 1.0 mg/mL once per day, Day 3, 4 hours after daily administration
# [9] = 1.0 mg/mL once per day, Day 4, 4 hours after daily administration
# [10] = 1.0 mg/mL once per day, Day 5, 4 hours after daily administration
# [11] = 1.0 mg/mL once per day, Day 6, 4 hours after daily administration
# [12] = 1.0 mg/mL once per day, Day 7, 4 hours after daily administration
# [13] = 2.0 mg/mL once per day, Day 2, 4 hours after daily administration
# [14] = 2.0 mg/mL once per day, Day 3, 4 hours after daily administration
# [15] = 2.0 mg/mL once per day, Day 4, 4 hours after daily administration
# [16] = 2.0 mg/mL once per day, Day 5, 4 hours after daily administration
# [17] = 2.0 mg/mL once per day, Day 6, 4 hours after daily administration
# [18] = 2.0 mg/mL once per day, Day 7, 4 hours after daily administration
compound,measurement,setting,value
Cc1ccc(C(=O)OCn2cc(C)c3c(S(=O)(=O)N4CC[C@H](N)C4)cccc3c2=O)c(C)c1 [Compound 63],Mean intraocular pressure of both eyes,"0.5 mg/mL both eyes, Day 1, 1 hour after administration",8.83 mmHg
same,Mean intraocular pressure of both eyes,"0.5 mg/mL both eyes, Day 1, 2 hours after administration",7.56 mmHg
same,Mean intraocular pressure of both eyes,"0.5 mg/mL both eyes, Day 1, 4 hours after administration",7.11 mmHg
same,Mean intraocular pressure of both eyes,"0.5 mg/mL both eyes, Day 1, 6 hours after administration",9.61 mmHg
same,Mean intraocular pressure of both eyes,"0.5 mg/mL both eyes, Day 1, 8 hours after administration",9.06 mmHg
same,Mean intraocular pressure of both eyes,"0.5 mg/mL both eyes, Day 1, 10 hours after administration",9.97 mmHg
same,Mean intraocular pressure of both eyes,"0.5 mg/mL both eyes, Day 1, before administration",10.11 mmHg
same,Mean intraocular pressure of both eyes,[1],7.94 mmHg
same,Change of intraocular pressure,[1],3.14 mmHg
same,Mean intraocular pressure of both eyes,[2],7.31 mmHg
same,Change of intraocular pressure,[2],3.08 mmHg
same,Mean intraocular pressure of both eyes,[3],7.78 mmHg
same,Change of intraocular pressure,[3],2.83 mmHg
same,Mean intraocular pressure of both eyes,[4],7.19 mmHg
same,Change of intraocular pressure,[4],3.78 mmHg
same,Mean intraocular pressure of both eyes,[5],6.61 mmHg
same,Change of intraocular pressure,[5],2.7 mmHg
same,Mean intraocular pressure of both eyes,[6],6.00 mmHg
same,Change of intraocular pressure,[6],4.06 mmHg
same,Change of intraocular pressure,"0.5 mg/mL once per day, Day 8, 4 hours after daily administration",4.2 mmHg
same,Change of intraocular pressure,"0.5 mg/mL once per day, Day 9, 4 hours after daily administration",3.25 mmHg
same,Change of intraocular pressure,"0.5 mg/mL once per day, Day 10, 4 hours after daily administration",3 mmHg
same,Change of intraocular pressure,"0.5 mg/mL once per day, Day 11, 4 hours after daily administration",3.25 mmHg
same,Change of intraocular pressure,"0.5 mg/mL once per day, Day 12, 4 hours after daily administration",3.28 mmHg
same,Change of intraocular pressure,"0.5 mg/mL once per day, Day 13, 4 hours after daily administration",3.31 mmHg
same,Change of intraocular pressure,"0.5 mg/mL once per day, Day 14, 4 hours after daily administration",3.72 mmHg
same,Change of intraocular pressure,"0.5 mg/mL, Day 1, 1 hour after administration",1.48 mmHg
same,Change of intraocular pressure,"0.5 mg/mL, Day 1, 2 hours after administration",3.41 mmHg
same,Change of intraocular pressure,"0.5 mg/mL, Day 1, 4 hours after administration",4.2 mmHg
same,Change of intraocular pressure,"0.5 mg/mL, Day 1, 6 hours after administration",2.33 mmHg
same,Change of intraocular pressure,"0.5 mg/mL, Day 1, 8 hours after administration",3.91 mmHg
same,Change of intraocular pressure,"0.5 mg/mL, Day 1, 10 hours after administration",4.45 mmHg
same,Change of intraocular pressure,"0.5 mg/mL, Day 1, before administration",−0.22 mmHg
same,Mean intraocular pressure of both eyes,"1.0 mg/mL both eyes, Day 1, 1 hour after administration",7.08 mmHg
same,Mean intraocular pressure of both eyes,"1.0 mg/mL both eyes, Day 1, 2 hours after administration",6.67 mmHg
same,Mean intraocular pressure of both eyes,"1.0 mg/mL both eyes, Day 1, 4 hours after administration",6.44 mmHg
same,Mean intraocular pressure of both eyes,"1.0 mg/mL both eyes, Day 1, 6 hours after administration",8.00 mmHg
same,Mean intraocular pressure of both eyes,"1.0 mg/mL both eyes, Day 1, 8 hours after administration",9.22 mmHg
same,Mean intraocular pressure of both eyes,"1.0 mg/mL both eyes, Day 1, 10 hours after administration",10.56 mmHg
same,Mean intraocular pressure of both eyes,"1.0 mg/mL both eyes, Day 1, before administration",9.94 mmHg
same,Mean intraocular pressure of both eyes,[7],7.64 mmHg
same,Change of intraocular pressure,[7],3.44 mmHg
same,Mean intraocular pressure of both eyes,[8],7.50 mmHg
same,Change of intraocular pressure,[8],2.89 mmHg
same,Mean intraocular pressure of both eyes,[9],7.33 mmHg
same,Change of intraocular pressure,[9],3.28 mmHg
same,Mean intraocular pressure of both eyes,[10],7.44 mmHg
same,Change of intraocular pressure,[10],3.53 mmHg
same,Mean intraocular pressure of both eyes,[11],6.92 mmHg
same,Change of intraocular pressure,[11],2.39 mmHg
same,Mean intraocular pressure of both eyes,[12],7.00 mmHg
same,Change of intraocular pressure,[12],3.06 mmHg
same,Change of intraocular pressure,"1.0 mg/mL once per day, Day 8, 4 hours after daily administration",4.03 mmHg
same,Change of intraocular pressure,"1.0 mg/mL once per day, Day 9, 4 hours after daily administration",2.5 mmHg
same,Change of intraocular pressure,"1.0 mg/mL once per day, Day 10, 4 hours after daily administration",2.44 mmHg
same,Change of intraocular pressure,"1.0 mg/mL once per day, Day 11, 4 hours after daily administration",2.19 mmHg
same,Change of intraocular pressure,"1.0 mg/mL once per day, Day 12, 4 hours after daily administration",2.64 mmHg
same,Change of intraocular pressure,"1.0 mg/mL once per day, Day 13, 4 hours after daily administration",3.33 mmHg
same,Change of intraocular pressure,"1.0 mg/mL once per day, Day 14, 4 hours after daily administration",3.53 mmHg
same,Change of intraocular pressure,"1.0 mg/mL, Day 1, 1 hour after administration",3.23 mmHg
same,Change of intraocular pressure,"1.0 mg/mL, Day 1, 2 hours after administration",4.3 mmHg
same,Change of intraocular pressure,"1.0 mg/mL, Day 1, 4 hours after administration",4.87 mmHg
same,Change of intraocular pressure,"1.0 mg/mL, Day 1, 6 hours after administration",3.94 mmHg
same,Change of intraocular pressure,"1.0 mg/mL, Day 1, 8 hours after administration",3.75 mmHg
same,Change of intraocular pressure,"1.0 mg/mL, Day 1, 10 hours after administration",3.86 mmHg
same,Change of intraocular pressure,"1.0 mg/mL, Day 1, before administration",−0.05 mmHg
same,Mean intraocular pressure of both eyes,"2.0 mg/mL both eyes, Day 1, 1 hour after administration",8.56 mmHg
same,Mean intraocular pressure of both eyes,"2.0 mg/mL both eyes, Day 1, 2 hours after administration",7.47 mmHg
same,Mean intraocular pressure of both eyes,"2.0 mg/mL both eyes, Day 1, 4 hours after administration",7.47 mmHg
same,Mean intraocular pressure of both eyes,"2.0 mg/mL both eyes, Day 1, 6 hours after administration",7.25 mmHg
same,Mean intraocular pressure of both eyes,"2.0 mg/mL both eyes, Day 1, 8 hours after administration",8.44 mmHg
same,Mean intraocular pressure of both eyes,"2.0 mg/mL both eyes, Day 1, 10 hours after administration",9.67 mmHg
same,Mean intraocular pressure of both eyes,"2.0 mg/mL both eyes, Day 1, before administration",9.67 mmHg
same,Mean intraocular pressure of both eyes,[13],7.03 mmHg
same,Change of intraocular pressure,[13],4.05 mmHg
same,Mean intraocular pressure of both eyes,[14],7.25 mmHg
same,Change of intraocular pressure,[14],3.14 mmHg
same,Mean intraocular pressure of both eyes,[15],6.86 mmHg
same,Change of intraocular pressure,[15],3.75 mmHg
same,Mean intraocular pressure of both eyes,[16],6.47 mmHg
same,Change of intraocular pressure,[16],4.5 mmHg
same,Mean intraocular pressure of both eyes,[17],5.92 mmHg
same,Change of intraocular pressure,[17],3.39 mmHg
same,Mean intraocular pressure of both eyes,[18],5.78 mmHg
same,Change of intraocular pressure,[18],4.28 mmHg
same,Change of intraocular pressure,"2.0 mg/mL once per day, Day 8, 4 hours after daily administration",4.53 mmHg
same,Change of intraocular pressure,"2.0 mg/mL once per day, Day 9, 4 hours after daily administration",3.72 mmHg
